Experiments:
Type in all cases: in vivo
[1] = tested on: Thrips tabaci (Onion thrips); experiment: Thrips tabaci (Onion thrips) mortality, sprayed sunflower leaf discs; conditions: foliar, 168 h, 200 ppm spray on sunflower leaf discs, mixed ages, mortality after 7 days
[2] = tested on: Diabrotica balteata (Corn root worm); experiment: Diabrotica balteata (Corn root worm) larval mortality, artificial diet in 24-well MTP; conditions: 120 h, application rate 200 ppm (concentration in well 18 ppm), L2 larvae, larval mortality after 5 days
[3] = tested on: Myzus persicae (Green peach aphid); experiment: Myzus persicae (Green peach aphid) mortality, sprayed sunflower leaf discs; conditions: foliar, 144 h, 200 ppm spray on sunflower leaf discs, mixed ages, mortality 6 DAT
[4] = tested on: Plutella xylostella (Diamond back moth); experiment: Plutella xylostella (Diamond back moth) larval mortality, artificial diet in 24-well MTP; conditions: 144 h, application rate 200 ppm (concentration in well 18 ppm), L2 larvae, larval mortality after 6 days
[5] = tested on: Myzus persicae (Green peach aphid); experiment: Myzus persicae (Green peach aphid) mortality, test compounds mixed with Sucrose solution under Parafilm; conditions: 120 h, 12.5 ppm in Sucrose solution, infested pea seedlings on Parafilm, mortality 5 days after infestation
[6] = tested on: Tetranychus urticae (Two-spotted spider mite); experiment: Tetranychus urticae (Two-spotted spider mite) mortality, sprayed bean leaf discs; conditions: foliar, 192 h, 200 ppm spray on bean leaf discs, mixed ages, egg, larval and adult mortality after 8 days
[7] = tested on: Spodoptera littoralis (Egyptian cotton leafworm); experiment: Spodoptera littoralis (Egyptian cotton leafworm) mortality, sprayed cotton leaf discs; conditions: foliar, 72 h, 200 ppm spray on cotton leaf discs, L1 larvae, mortality 3 DAT

O=C(Nc1cccc(C(=O)Nc2c(Br)cc(C(F)(C(F)(F)F)C(F)(F)F)cc2OC(F)F)c1F)c1ccc(F)c(C(F)(F)F)c1 [Compound 27]
≥ 80%: pest or weed control at 200 ppm [1] | pest or weed control at 200 ppm [2] | pest or weed control at 200 ppm [3] | pest or weed control at 200 ppm [4] | pest or weed control at 12.5 ppm [5] | pest or weed control at 200 ppm [6] | pest or weed control at 200 ppm [7]

O=C(Nc1cccc(C(=O)Nc2c(Br)cc(C(F)(C(F)(F)F)C(F)(F)F)cc2OC(F)F)c1F)c1ccc(C(F)(F)F)cc1 [Compound 28]
≥ 80%: pest or weed control at 200 ppm [1] | pest or weed control at 200 ppm [2] | pest or weed control at 200 ppm [3] | pest or weed control at 200 ppm [4] | pest or weed control at 12.5 ppm [5] | pest or weed control at 200 ppm [6] | pest or weed control at 200 ppm [7]

O=C(Nc1cccc(C(=O)Nc2c(Br)cc(C(F)(C(F)(F)F)C(F)(F)F)cc2OC(F)F)c1F)c1ccccc1 [Compound 31]
≥ 80%: pest or weed control at 200 ppm [1] | pest or weed control at 200 ppm [2] | pest or weed control at 200 ppm [3] | pest or weed control at 200 ppm [4] | pest or weed control at 12.5 ppm [5] | pest or weed control at 200 ppm [6] | pest or weed control at 200 ppm [7]

O=C(Nc1cccc(C(=O)Nc2c(Br)cc(C(F)(C(F)(F)F)C(F)(F)F)cc2OC(F)F)c1F)c1ccc(F)cc1 [Compound 32]
≥ 80%: pest or weed control at 200 ppm [1] | pest or weed control at 200 ppm [2] | pest or weed control at 200 ppm [3] | pest or weed control at 200 ppm [4] | pest or weed control at 12.5 ppm [5] | pest or weed control at 200 ppm [6] | pest or weed control at 200 ppm [7]

O=C(Nc1cccc(C(=O)Nc2c(Br)cc(C(F)(C(F)(F)F)C(F)(F)F)cc2OC(F)F)c1F)c1ccc(F)cc1Cl [Compound 36]
≥ 80%: pest or weed control at 200 ppm [1] | pest or weed control at 200 ppm [2] | pest or weed control at 200 ppm [3] | pest or weed control at 200 ppm [4] | pest or weed control at 12.5 ppm [5] | pest or weed control at 200 ppm [6] | pest or weed control at 200 ppm [7]

O=C(Nc1cccc(C(=O)Nc2c(Br)cc(C(F)(C(F)(F)F)C(F)(F)F)cc2OC(F)F)c1F)c1cccc(F)c1F [Compound 38]
≥ 80%: pest or weed control at 200 ppm [1] | pest or weed control at 200 ppm [2] | pest or weed control at 200 ppm [3] | pest or weed control at 200 ppm [4] | pest or weed control at 12.5 ppm [5] | pest or weed control at 200 ppm [6] | pest or weed control at 200 ppm [7]

COc1c(NC(=O)c2ccc([N+](=O)[O-])cc2)cccc1C(=O)Nc1c(Br)cc(C(F)(C(F)(F)F)C(F)(F)F)cc1OC(F)F [Compound 39]
≥ 80%: pest or weed control at 200 ppm [1] | pest or weed control at 200 ppm [2] | pest or weed control at 200 ppm [3] | pest or weed control at 200 ppm [4] | pest or weed control at 12.5 ppm [5] | pest or weed control at 200 ppm [6] | pest or weed control at 200 ppm [7]

O=C(Nc1cccc(C(=O)Nc2c(Br)cc(C(F)(C(F)(F)F)C(F)(F)F)cc2OC(F)F)c1F)c1ccc(F)cc1F [Compound 40]
≥ 80%: pest or weed control at 200 ppm [1] | pest or weed control at 200 ppm [2] | pest or weed control at 200 ppm [3] | pest or weed control at 200 ppm [4] | pest or weed control at 12.5 ppm [5] | pest or weed control at 200 ppm [6] | pest or weed control at 200 ppm [7]

COc1c(NC(=O)c2ccc([N+](=O)[O-])cc2Cl)cccc1C(=O)Nc1c(Br)cc(C(F)(C(F)(F)F)C(F)(F)F)cc1OC(F)F [Compound 47]
≥ 80%: pest or weed control at 200 ppm [1] | pest or weed control at 200 ppm [2] | pest or weed control at 200 ppm [3] | pest or weed control at 200 ppm [4] | pest or weed control at 12.5 ppm [5] | pest or weed control at 200 ppm [6] | pest or weed control at 200 ppm [7]

O=C(Nc1cccc(C(=O)Nc2c(Cl)cc(C(F)(C(F)(F)F)C(F)(F)F)cc2OC(F)F)c1F)c1ccc([N+](=O)[O-])cc1 [Compound 49]
≥ 80%: pest or weed control at 200 ppm [1] | pest or weed control at 200 ppm [2] | pest or weed control at 200 ppm [3] | pest or weed control at 200 ppm [4] | pest or weed control at 12.5 ppm [5] | pest or weed control at 200 ppm [6] | pest or weed control at 200 ppm [7]

COc1c(NC(=O)c2ccc(OC(F)(F)F)cc2)cccc1C(=O)Nc1c(Br)cc(C(F)(C(F)(F)F)C(F)(F)F)cc1OC(F)F [Compound 50]
≥ 80%: pest or weed control at 200 ppm [1] | pest or weed control at 200 ppm [2] | pest or weed control at 200 ppm [3] | pest or weed control at 200 ppm [4] | pest or weed control at 12.5 ppm [5] | pest or weed control at 200 ppm [6] | pest or weed control at 200 ppm [7]

Cc1ccc(C(=O)Nc2cccc(C(=O)Nc3c(Cl)cc(C(F)(C(F)(F)F)C(F)(F)F)cc3OC(F)F)c2F)cc1 [Compound 51]
≥ 80%: pest or weed control at 200 ppm [1] | pest or weed control at 200 ppm [2] | pest or weed control at 200 ppm [3] | pest or weed control at 200 ppm [4] | pest or weed control at 12.5 ppm [5] | pest or weed control at 200 ppm [6] | pest or weed control at 200 ppm [7]

Cc1cc(F)ccc1C(=O)Nc1cccc(C(=O)Nc2c(Cl)cc(C(F)(C(F)(F)F)C(F)(F)F)cc2OC(F)F)c1F [Compound 53]
≥ 80%: pest or weed control at 200 ppm [1] | pest or weed control at 200 ppm [2] | pest or weed control at 200 ppm [3] | pest or weed control at 200 ppm [4] | pest or weed control at 12.5 ppm [5] | pest or weed control at 200 ppm [6] | pest or weed control at 200 ppm [7]

COc1c(NC(=O)c2ccc(C(F)(F)F)cc2)cccc1C(=O)Nc1c(Br)cc(C(F)(C(F)(F)F)C(F)(F)F)cc1OC(F)F [Compound 54]
≥ 80%: pest or weed control at 200 ppm [1] | pest or weed control at 200 ppm [2] | pest or weed control at 200 ppm [3] | pest or weed control at 200 ppm [4] | pest or weed control at 12.5 ppm [5] | pest or weed control at 200 ppm [6] | pest or weed control at 200 ppm [7]

O=C(Nc1cccc(C(=O)Nc2c(Cl)cc(C(F)(C(F)(F)F)C(F)(F)F)cc2OC(F)F)c1F)c1ccc([N+](=O)[O-])cc1Cl [Compound 57]
≥ 80%: pest or weed control at 200 ppm [1] | pest or weed control at 200 ppm [2] | pest or weed control at 200 ppm [3] | pest or weed control at 200 ppm [4] | pest or weed control at 12.5 ppm [5] | pest or weed control at 200 ppm [6] | pest or weed control at 200 ppm [7]

O=C(Nc1cccc(C(=O)Nc2c(Cl)cc(C(F)(C(F)(F)F)C(F)(F)F)cc2OC(F)F)c1F)c1ccc(OC(F)(F)F)cc1 [Compound 60]
≥ 80%: pest or weed control at 200 ppm [1] | pest or weed control at 200 ppm [2] | pest or weed control at 200 ppm [3] | pest or weed control at 200 ppm [4] | pest or weed control at 12.5 ppm [5] | pest or weed control at 200 ppm [6] | pest or weed control at 200 ppm [7]

COc1c(NC(=O)c2ccc(F)cc2)cccc1C(=O)Nc1c(Br)cc(C(F)(C(F)(F)F)C(F)(F)F)cc1OC(F)F [Compound 61]
≥ 80%: pest or weed control at 200 ppm [1] | pest or weed control at 200 ppm [2] | pest or weed control at 200 ppm [3] | pest or weed control at 200 ppm [4] | pest or weed control at 12.5 ppm [5] | pest or weed control at 200 ppm [6] | pest or weed control at 200 ppm [7]

O=C(Nc1cccc(C(=O)Nc2c(Cl)cc(C(F)(C(F)(F)F)C(F)(F)F)cc2OC(F)F)c1F)c1ccc(C(F)(F)F)cc1 [Compound 64]
≥ 80%: pest or weed control at 200 ppm [1] | pest or weed control at 200 ppm [2] | pest or weed control at 200 ppm [3] | pest or weed control at 200 ppm [4] | pest or weed control at 12.5 ppm [5] | pest or weed control at 200 ppm [6] | pest or weed control at 200 ppm [7]

COc1c(NC(=O)c2ccc(F)cc2Cl)cccc1C(=O)Nc1c(Br)cc(C(F)(C(F)(F)F)C(F)(F)F)cc1OC(F)F [Compound 66]
≥ 80%: pest or weed control at 200 ppm [1] | pest or weed control at 200 ppm [2] | pest or weed control at 200 ppm [3] | pest or weed control at 200 ppm [4] | pest or weed control at 12.5 ppm [5] | pest or weed control at 200 ppm [6] | pest or weed control at 200 ppm [7]

O=C(Nc1cccc(C(=O)Nc2c(Cl)cc(C(F)(C(F)(F)F)C(F)(F)F)cc2OC(F)F)c1F)c1ccccc1 [Compound 68]
≥ 80%: pest or weed control at 200 ppm [1] | pest or weed control at 200 ppm [2] | pest or weed control at 200 ppm [3] | pest or weed control at 200 ppm [4] | pest or weed control at 12.5 ppm [5] | pest or weed control at 200 ppm [6] | pest or weed control at 200 ppm [7]

O=C(Nc1cccc(C(=O)Nc2c(Cl)cc(C(F)(C(F)(F)F)C(F)(F)F)cc2OC(F)F)c1F)c1ccc(F)cc1 [Compound 70]
≥ 80%: pest or weed control at 200 ppm [1] | pest or weed control at 200 ppm [2] | pest or weed control at 200 ppm [3] | pest or weed control at 200 ppm [4] | pest or weed control at 12.5 ppm [5] | pest or weed control at 200 ppm [6] | pest or weed control at 200 ppm [7]

O=C(Nc1cccc(C(=O)Nc2c(Cl)cc(C(F)(C(F)(F)F)C(F)(F)F)cc2OC(F)F)c1F)c1cccc(F)c1F [Compound 76]
≥ 80%: pest or weed control at 200 ppm [1] | pest or weed control at 200 ppm [2] | pest or weed control at 200 ppm [3] | pest or weed control at 200 ppm [4] | pest or weed control at 12.5 ppm [5] | pest or weed control at 200 ppm [6] | pest or weed control at 200 ppm [7]

O=C(Nc1cccc(C(=O)Nc2c(Cl)cc(C(F)(C(F)(F)F)C(F)(F)F)cc2OC(F)F)c1F)c1ccc(F)cc1F [Compound 78]
≥ 80%: pest or weed control at 200 ppm [1] | pest or weed control at 200 ppm [2] | pest or weed control at 200 ppm [3] | pest or weed control at 200 ppm [4] | pest or weed control at 12.5 ppm [5] | pest or weed control at 200 ppm [6] | pest or weed control at 200 ppm [7]

— patent US11445724B2, “Insecticidal compounds” (SYNGENTA PARTICIPATIONS AG, priority 2013, dated 2022)
